Laboratory results taken from patent US20250136586A1, “Substituted 7-(Pyrimidin-4-yl)Quinolin-4(1H)-One Compounds as Cyclin Dependent Kinase Inhibitors” (BeiGene, Ltd., priority 2022, published 2025).

Legend:
CDK4/Cyclin D1 = CDK4/Cyclin D1 (Homo sapiens (Human), UniProt P11802); experiment: TR-FRET kinase inhibition assay, CDK4/Cyclin D1; type: biochemical; conditions: 1 mM ATP, 0.15 μM Rb (Ser780)-biotin substrate, read-out: CDK4D1 IC50
How it was run: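 Kinase was preincubated with compound for 60 min at room temperature, then reacted with ATP and Rb (Ser780)-biotin substrate for 120 min. IC50 came from a four-parameter logistic fit.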

CDK6/Cyclin D3 = CDK6/Cyclin D3 (Homo sapiens (Human), UniProt Q00534); experiment: TR-FRET kinase inhibition assay, CDK6/Cyclin D3; type: biochemical; conditions: 1 mM ATP, 0.15 μM Rb (Ser780)-biotin substrate, read-out: CDK6D3 IC50
Chain of CDK6/Cyclin D3 (Q00534 whole entry): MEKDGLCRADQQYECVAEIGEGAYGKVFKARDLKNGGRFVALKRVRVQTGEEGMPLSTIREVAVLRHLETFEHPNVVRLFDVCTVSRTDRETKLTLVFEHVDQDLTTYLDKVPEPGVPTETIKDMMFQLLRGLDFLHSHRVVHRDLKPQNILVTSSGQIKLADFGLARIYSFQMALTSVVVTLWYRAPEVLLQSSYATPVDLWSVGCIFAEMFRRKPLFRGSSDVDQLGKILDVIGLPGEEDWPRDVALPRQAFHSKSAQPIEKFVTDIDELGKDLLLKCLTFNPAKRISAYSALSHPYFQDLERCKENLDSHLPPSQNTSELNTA
Chain of CDK6/Cyclin D3 (P30281 whole entry partner): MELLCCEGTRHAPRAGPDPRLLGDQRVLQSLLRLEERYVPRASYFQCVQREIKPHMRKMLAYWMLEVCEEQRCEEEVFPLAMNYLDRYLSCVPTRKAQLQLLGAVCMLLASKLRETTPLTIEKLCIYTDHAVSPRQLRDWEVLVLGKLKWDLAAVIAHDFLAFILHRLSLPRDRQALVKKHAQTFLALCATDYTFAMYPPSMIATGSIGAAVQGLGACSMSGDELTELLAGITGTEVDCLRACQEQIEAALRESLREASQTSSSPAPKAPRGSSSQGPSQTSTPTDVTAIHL
How it was run: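 Kinase preincubated 60 min at room temperature with 0–10 μM compound; reaction started with 1 mM ATP and 0.15 μM Rb (Ser780)-biotin, run 120 min at room temperature in HEPES pH 7.0, 50 mM MgCl2. pRb detected by TR-FRET (665/620 nm ratio); IC50 from four-parameter logistic fit.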

Chain of CDK4/Cyclin D1 (P11802 whole entry): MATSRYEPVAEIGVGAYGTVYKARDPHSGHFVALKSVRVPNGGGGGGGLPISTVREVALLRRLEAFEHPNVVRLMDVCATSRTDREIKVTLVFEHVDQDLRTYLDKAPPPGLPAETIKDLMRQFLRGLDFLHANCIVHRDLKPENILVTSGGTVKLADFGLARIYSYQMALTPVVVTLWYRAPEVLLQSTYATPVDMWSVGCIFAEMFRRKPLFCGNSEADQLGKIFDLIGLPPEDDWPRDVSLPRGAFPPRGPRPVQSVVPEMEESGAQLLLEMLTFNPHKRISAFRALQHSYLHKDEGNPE
Chain of CDK4/Cyclin D1 (P24385 whole entry partner): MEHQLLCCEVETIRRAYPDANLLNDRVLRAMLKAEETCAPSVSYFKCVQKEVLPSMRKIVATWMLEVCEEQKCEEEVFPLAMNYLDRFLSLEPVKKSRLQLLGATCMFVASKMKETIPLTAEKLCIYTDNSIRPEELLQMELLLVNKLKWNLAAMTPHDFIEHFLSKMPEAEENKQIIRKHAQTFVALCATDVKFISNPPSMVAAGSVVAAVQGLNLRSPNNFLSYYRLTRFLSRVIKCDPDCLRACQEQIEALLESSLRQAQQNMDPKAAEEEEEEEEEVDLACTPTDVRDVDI

SMILES: CC(C)n1c(CN[C@H]2CCOC2)cc(=O)c2ccc(-c3nc(N[C@@H]4CCOC[C@H]4O)ncc3F)cc21 [Example 67, 7-(5-fluoro-2-(((3S,4R)-3-hydroxytetrahydro-2H-pyran-4-yl)amino)pyrimidin-4-yl)-1-isopropyl-2-((((S)-tetrahydrofuran-3-yl)amino)methyl)quinolin-4(1H)-one]
- IC50 (CDK4/Cyclin D1): 21 nM
- IC50 (CDK6/Cyclin D3): 483 nM

SMILES: CC(C)n1c(CN[C@H]2C[C@@H](F)C2)cc(=O)c2ccc(-c3nc(N[C@@H]4CCOC[C@H]4O)ncc3F)cc21 [Example 64, 7-(5-fluoro-2-(((3S,4R)-3-hydroxytetrahydro-2H-pyran-4-yl)amino)pyrimidin-4-yl)-2-((((1s,3S)-3-fluorocyclobutyl)amino)methyl)-1-isopropylquinolin-4(1H)-one]
- IC50 (CDK4/Cyclin D1): 26 nM
- IC50 (CDK6/Cyclin D3): 702 nM

SMILES: CC(C)n1c(CN2CCC[C@H](F)C2)cc(=O)c2ccc(-c3nc(N[C@@H]4CCOC[C@H]4O)ncc3F)cc21 [Example 69, 7-(5-fluoro-2-(((3S,4R)-3-hydroxytetrahydro-2H-pyran-4-yl)amino)pyrimidin-4-yl)-2-(((S)-3-fluoropiperidin-1-yl)methyl)-1-isopropylquinolin-4(1H)-one]
- IC50 (CDK4/Cyclin D1): 21 nM
- IC50 (CDK6/Cyclin D3): 693 nM

SMILES: CC(C)n1c(CN2CCCC2)cc(=O)c2ccc(-c3nc(N[C@@H]4CCOC[C@H]4O)ncc3F)cc21 [Example 100, 7-(5-fluoro-2-(((3S,4R)-3-hydroxytetrahydro-2H-pyran-4-yl)amino)pyrimidin-4-yl)-1-isopropyl-2-(pyrrolidin-1-ylmethyl)quinolin-4(1H)-one]
- IC50 (CDK4/Cyclin D1): 19 nM
- IC50 (CDK6/Cyclin D3): 760 nM

SMILES: Cc1c(CN[C@H]2CCOC2)n(C(C)C)c2cc(-c3nc(N[C@@H]4CCOC[C@H]4O)ncc3F)ccc2c1=O [Example 113, 7-(5-fluoro-2-(((3S,4R)-3-hydroxytetrahydro-2H-pyran-4-yl)amino)pyrimidin-4-yl)-1-isopropyl-3-methyl-2-((((S)-tetrahydrofuran-3-yl)amino)methyl)quinolin-4(1H)-one]
- IC50 (CDK4/Cyclin D1): 17 nM
- IC50 (CDK6/Cyclin D3): 663 nM

SMILES: CC(C)n1c(CN2CCC(C)(O)CC2)cc(=O)c2ccc(-c3nc(N[C@@H]4CCOC[C@H]4O)ncc3F)cc21 [Example 38, 7-(5-fluoro-2-(((3S,4R)-3-hydroxytetrahydro-2H-pyran-4-yl)amino)pyrimidin-4-yl)-2-((4-hydroxy-4-methylpiperidin-1-yl)methyl)-1-isopropylquinolin-4(1H)-one]
- IC50 (CDK4/Cyclin D1): 24 nM
- IC50 (CDK6/Cyclin D3): 888 nM

SMILES: CC(C)n1c(CN2CCOC[C@H]2C)cc(=O)c2ccc(-c3nc(N[C@@H]4CCOC[C@H]4O)ncc3F)cc21 [Example 82, 7-(5-fluoro-2-(((3S,4R)-3-hydroxytetrahydro-2H-pyran-4-yl)amino)pyrimidin-4-yl)-1-isopropyl-2-(((R)-3-methylmorpholino)methyl)quinolin-4(1H)-one]
- IC50 (CDK4/Cyclin D1): 12 nM
- IC50 (CDK6/Cyclin D3): 540 nM

SMILES: CC(C)n1c(CN2CCO[C@H](C)C2)cc(=O)c2ccc(-c3nc(N[C@@H]4CCOC[C@H]4O)ncc3F)cc21 [Example 18, 7-(5-fluoro-2-(((3S,4R)-3-hydroxytetrahydro-2H-pyran-4-yl)amino)pyrimidin-4-yl)-1-isopropyl-2-(((R)-2-methylmorpholino)methyl)quinolin-4(1H)-one]
- IC50 (CDK4/Cyclin D1): 27 nM
- IC50 (CDK6/Cyclin D3): 1210 nM

SMILES: CC(C)n1c(CN2CCOCC23CC3)cc(=O)c2ccc(-c3nc(N[C@@H]4CCOC[C@H]4O)ncc3F)cc21 [Example 73, 2-((7-oxa-4-azaspiro[2.5]octan-4-yl)methyl)-7-(5-fluoro-2-(((3S,4R)-3-hydroxytetrahydro-2H-pyran-4-yl)amino)pyrimidin-4-yl)-1-isopropylquinolin-4(1H)-one]
- IC50 (CDK4/Cyclin D1): 7.5 nM
- IC50 (CDK6/Cyclin D3): 225 nM

SMILES: Cc1c(Cl)c(=O)c2ccc(-c3nc(N[C@@H]4CCOC[C@H]4O)ncc3F)cc2n1C(C)C [Example 15, 3-chloro-7-(5-fluoro-2-(((3S,4R)-3-hydroxytetrahydro-2H-pyran-4-yl)amino)pyrimidin-4-yl)-1-isopropyl-2-methylquinolin-4(1H)-one]
- IC50 (CDK4/Cyclin D1): 15 nM
- IC50 (CDK6/Cyclin D3): 255 nM

SMILES: CC(C)n1c(CN2CCC[C@]3(CCNC3=O)C2)cc(=O)c2ccc(-c3nc(N[C@@H]4CCOC[C@H]4O)ncc3F)cc21 [Example 105, (S)-7-((7-(5-fluoro-2-(((3S,4R)-3-hydroxytetrahydro-2H-pyran-4-yl)amino)pyrimidin-4-yl)-1-isopropyl-4-oxo-1,4-dihydroquinolin-2-yl)methyl)-2,7-diazaspiro[4.5]decan-1-one]
- IC50 (CDK4/Cyclin D1): 4.1 nM
- IC50 (CDK6/Cyclin D3): 291 nM

SMILES: CC(C)n1c(CNC2CCC2)cc(=O)c2ccc(-c3nc(N[C@@H]4CCOC[C@H]4O)ncc3F)cc21 [Example 76, 2-((cyclobutylamino)methyl)-7-(5-fluoro-2-(((3S,4R)-3-hydroxytetrahydro-2H-pyran-4-yl)amino)pyrimidin-4-yl)-1-isopropylquinolin-4(1H)-one]
- IC50 (CDK4/Cyclin D1): 28 nM
- IC50 (CDK6/Cyclin D3): 588 nM

SMILES: CC(C)n1c(CN2CCCC(F)(F)C2)cc(=O)c2ccc(-c3nc(N[C@@H]4CCOC[C@H]4O)ncc3F)cc21 [Example 70, 2-((3,3-difluoropiperidin-1-yl)methyl)-7-(5-fluoro-2-(((3S,4R)-3-hydroxytetrahydro-2H-pyran-4-yl)amino)pyrimidin-4-yl)-1-isopropylquinolin-4(1H)-one]
- IC50 (CDK4/Cyclin D1): 11 nM
- IC50 (CDK6/Cyclin D3): 396 nM

SMILES: CNC(=O)c1cc(=O)c2c(F)cc(-c3nc(N[C@@H]4CCOC[C@H]4O)ncc3F)cc2n1C(C)C [Example 19, 5-fluoro-7-(5-fluoro-2-(((3S,4R)-3-hydroxytetrahydro-2H-pyran-4-yl)amino)pyrimidin-4-yl)-1-isopropyl-N-methyl-4-oxo-1,4-dihydroquinoline-2-carboxamide]
- IC50 (CDK4/Cyclin D1): 24 nM
- IC50 (CDK6/Cyclin D3): 504 nM

SMILES: CC(C)n1c(CN2CC[C@](C)(O)C2)cc(=O)c2ccc(-c3nc(N[C@@H]4CCOC[C@H]4O)ncc3F)cc21 [Example 61, 7-(5-fluoro-2-(((3S,4R)-3-hydroxytetrahydro-2H-pyran-4-yl)amino)pyrimidin-4-yl)-2-(((S)-3-hydroxy-3-methylpyrrolidin-1-yl)methyl)-1-isopropylquinolin-4(1H)-one]
- IC50 (CDK4/Cyclin D1): 30 nM
- IC50 (CDK6/Cyclin D3): 1170 nM

SMILES: CC(C)n1c(CN2CC[C@H](F)C2)cc(=O)c2ccc(-c3nc(N[C@@H]4CCOC[C@H]4O)ncc3F)cc21 [Example 27, 7-(5-fluoro-2-(((3S,4R)-3-hydroxytetrahydro-2H-pyran-4-yl)amino)pyrimidin-4-yl)-2-(((S)-3-fluoropyrrolidin-1-yl)methyl)-1-isopropylquinolin-4(1H)-one]
- IC50 (CDK4/Cyclin D1): 5.7 nM
- IC50 (CDK6/Cyclin D3): 148 nM

SMILES: Cc1c(CN2CC3CCC(C2)O3)n(C(C)C)c2cc(-c3nc(N[C@@H]4CCOC[C@H]4O)ncc3F)ccc2c1=O [Example 102, 2-((8-oxa-3-azabicyclo[3.2.1]octan-3-yl)methyl)-7-(5-fluoro-2-(((3S,4R)-3-hydroxytetrahydro-2H-pyran-4-yl)amino)pyrimidin-4-yl)-1-isopropyl-3-methylquinolin-4(1H)-one]
- IC50 (CDK4/Cyclin D1): 15 nM
- IC50 (CDK6/Cyclin D3): 330 nM

SMILES: CC(C)n1c(CN2CCCOCC2)cc(=O)c2ccc(-c3nc(N[C@@H]4CCOC[C@H]4O)ncc3F)cc21 [Example 79, 2-((1,4-oxazepan-4-yl)methyl)-7-(5-fluoro-2-(((3S,4R)-3-hydroxytetrahydro-2H-pyran-4-yl)amino)pyrimidin-4-yl)-1-isopropylquinolin-4(1H)-one]
- IC50 (CDK4/Cyclin D1): 34 nM
- IC50 (CDK6/Cyclin D3): 850 nM
